From US7205305B2, “Inhibitors of p38” (Vertex Pharmaceuticals Incorporated, priority 1996, dated 2007) come the findings set out here.

Usually Ki stands for a dissociation constant, usually derived from enzyme kinetics or from competition with a known ligand. In general, IC50 refers to the concentration that gives 50% inhibition. Read a high IC50 as lower potency.

The structures appear in SMILES notation. A value given as a limit tells only on which side of the number the result lay.

Assay [1] concerns the target T1, activated p38 (Homo sapiens, UniProt Q16539). Briefly: Inhibition of ATPase activity. The class given is biochemical. As to conditions: ATPase activity of activated p38 (60 nM), 30° C., 30 minutes. Here is the method: This assay was carried out in the presence of 10 mM MgCl2, 25 mM β-glycerophosphate, 10% glycerol and 100 mM HEPES buffer at pH 7.6. For a typical Ki determination, the Km for ATP in the ATPase activity of activated p38 reaction was determined in the absence of inhibitor and in the presence of two concentrations of inhibitor. A stock solution was prepared containing all of the above components and activated p38 (60 nM). The stock solution was aliquotted into vials. […] The reaction was initiated by adding various concentrations of ATP and then incubated at 30° C. After 30 minutes, the reactions were quenched with 50 μl of EDTA (0.1 M, final concentration), pH 8.0. The product of p38 ATPase activity, ADP, was quantified by HPLC analysis.
Separation of ADP from ATP was achieved on a reversed phase column (Supelcosil, LC-18, 3 μm, part no. 5–8985) using a binary solvent gradient of following composition: Solvent A—0.1 M phosphate buffer containing 8 mM tetrabutylammonium hydrogen sulfate (Sigma Chemical Co., catalogue no. T-7158), Solvent B—Solvent A with 30% methanol.
Ki was determined from the rate data as a function of inhibitor and ATP concentrations.

Assay [2] deals with T1, activated p38. The experiment in a line: Inhibition of phosphorylation of EGF receptor peptide ("kinase"). The class given is biochemical. Conditions: inhibition of phosphorylation of EGF receptor peptide by activated p38. An outline of the steps:
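Activated p38 was preincubated with inhibitor for 15 min at room temperature in 100 mM HEPES pH 7.6, 10 mM MgCl2, 25 mM β-glycerophosphate, 10% glycerol, 5% DMSO final. Reaction used 200 μM EGF receptor peptide and 100 μM ATP for 30 min at 30° C. TFA-quenched phosphopeptide was quantified by reverse-phase HPLC.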

The test system of assay [3] is IL-1 production in LPS-stimulated PBMCs. The experiment in a line: Inhibition of IL-1 production in LPS-stimulated PBMCs ("cell"). The class given is cell-based, human. As to conditions: Homo sapiens, PBMC. An outline of the steps:
(§1)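 Cytokine levels (IL-1β, TNF-α) in culture supernatants quantified by ELISA, with IC50 taken from dose-response curves. Fresh human PBMCs in RPMI1640 with 10% FBS received serially diluted compound plus LPS (4 ng/ml final) and were cultured 12–15 h at 37 °C, 5% CO2.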

The test system of assay [4] is LPS induced PGHS-2 expression in PBMCs. The experiment in a line: Inhibition of LPS-induced prostaglandin endoperoxide synthase-2 (PGHS-2, or COX-2) induction in PBMCs. The class given is cell-based, human. As to conditions: PBMCs, 0.2, 2.0 and 20 μM compound, LPS 4 ng/ml, overnight, anti-COX-2 immunoblot. Here is the method: Human peripheral mononuclear cells (PBMCs) were isolated from fresh human blood buffy coats by centrifugation in a Vacutainer CPT (Becton & Dickinson). We seeded 15×10^6 cells in a 6-well tissue culture dish containing RPMI 1640 supplemented with 10% fetal bovine serum, 50 U/ml penicillin, 50 μg/ml streptomycin, and 2 mM L-glutamine. Compound 6 (above) was added at 0.2, 2.0 and 20 μM final concentrations in DMSO. Then we added LPS at a final concentration of 4 ng/ml to induce enzyme expression. The final culture volume was 10 ml/well.
After overnight incubation at 37° C., 5% CO2, the cells were harvested by scraping and subsequent centrifugation, then the supernatant was removed, and the cells were washed twice in ice-cold DPBS (Dulbecco's phosphate buffered saline, BioWhittaker). The cells were lysed on ice for 10 min in 50 μl cold lysis buffer (20 mM Tris-HCl, pH 7.2, 150 mM NaCl, 1% Triton-X-100, 1% deoxycholic acid, 0.1% SDS, 1 mM EDTA, 2% aprotinin (Sigma), 10 μg/ml pepstatin, 10 μg/ml leupeptin, 2 mM PMSF, 1 mM benzamidine, 1 mM DTT) containing 1 μl Benzonase (DNAse from Merck). The protein concentration of each sample was determined using the BCA assay (Pierce) and bovine serum albumin as a standard. Then the protein concentration of each sample was adjusted to 1 mg/ml with cold lysis buffer. […]
For orientation: Immunoblotting shows a protein as a band on a membrane.

Assay [5] deals with IL-8 production in IL-1-stimulated PBMCs. The experiment in a line: Inhibition of IL-8 production in IL-1-stimulated PBMCs. The class given is cell-based. As to conditions: Homo sapiens, PBMC; IL-1b-stimulated PBMCs, ELISA, overnight incubation. The method, then:
(§2) This assay was carried out on PBMCs exactly the same as above except that 50 μl of an IL-1b working stock solution (2 ng/ml in cell culture medium) was added to the assay instead of the (LPS) working stock solution.
(§3) Cell culture supernatants were harvested as described above and analyzed by ELISA for levels of IL-6 (Endogen, #EH2-IL6) and IL-8 (Endogen, #EH2-IL8) according to the instructions of the manufacturer. The ELISA data were used to generate dose-response curves from which IC50 values were derived.
In general terms: In an ELISA, binding on a coated surface is turned into a signal by an enzyme label.

Assay [6] relates to IL-6 production in IL-1-stimulated PBMCs. The experiment in a line: Inhibition of IL-6 production in IL-1-stimulated PBMCs. The class given is cell-based. As to conditions: Homo sapiens, PBMC; IL-1b-stimulated PBMCs, ELISA, overnight incubation. The method, then: as §2, §3
The subject of assay [7] is TNF production in LPS-stimulated PBMCs. The experiment in a line: Inhibition of TNF production in LPS-stimulated PBMCs ("cell"). The class given is cell-based, human. As to conditions: Homo sapiens, PBMC. The essentials: as §1

T1 sequence (Q16539 whole entry): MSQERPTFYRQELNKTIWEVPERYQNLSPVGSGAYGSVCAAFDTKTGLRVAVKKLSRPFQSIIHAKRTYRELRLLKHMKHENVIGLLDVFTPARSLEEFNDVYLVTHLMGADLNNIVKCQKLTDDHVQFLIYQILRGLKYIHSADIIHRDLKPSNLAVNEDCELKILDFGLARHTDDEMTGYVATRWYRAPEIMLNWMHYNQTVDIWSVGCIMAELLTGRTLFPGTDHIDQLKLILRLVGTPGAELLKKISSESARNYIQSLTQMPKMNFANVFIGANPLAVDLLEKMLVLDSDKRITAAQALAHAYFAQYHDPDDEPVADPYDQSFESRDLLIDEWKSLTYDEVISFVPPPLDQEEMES

Take `O=c1ncn2nc(Sc3ccccc3)ccc2c1-c1ccc(F)cc1` [Compound 2]: on activated p38 [1], the affinity, expressed as Ki, was 15 µM. The IC50 on activated p38 [2] is at least 1 µM.

For the compound `O=c1ncn2nc(Sc3ccccc3)ccc2c1-c1ccc(Cl)cc1Cl` [Compound 3], the Ki on activated p38 [1] stood at 5 µM. For the same compound, the IC50 on activated p38 [2] was at least 1 µM.

`Cc1ccc(Sc2ccc3c(-c4ccc(Cl)cc4Cl)c(=O)ncn3n2)cc1` [Compound 5] displayed a Ki at activated p38 [1] of 2.9 µM. The IC50 against activated p38 [2] is at least 1 µM.

Consider `O=c1ncn2nc(Sc3ccccc3)ccc2c1-c1c(Cl)cccc1Cl` [Compound 6], for which the IC50 in assay [3] was 0.1 to 0.5 µM; in assay [5], 0.85 µM; at activated p38 [2], 0.1 to 1 µM; in assay [6], 0.6 µM; in assay [7], at least 0.5 µM. In addition, in assay [4], the “LPS induced PGHS-2 expression” value was “inhibits LPS induced PGHS-2 expression in PBMCs”. Moreover, the Ki on activated p38 [1] is 0.4 µM.
